PubChem BioAssay (NCI)
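Exposure lasted 48 hours, with cells grown in 96-well plates and compounds tested at five concentrations. TGI: total growth inhibition.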

Legend:
Assay in all cases: DTP human tumour cell line panel, 48 h
SF-268 CNS = test system: SF-268 CNS
SF-295 CNS = test system: SF-295 CNS
ACHN renal = test system: ACHN renal
SF-539 CNS = test system: SF-539 CNS
SN12C renal = test system: SN12C renal
UACC-62 melanoma = test system: UACC-62 melanoma
NCI-H23 lung = test system: NCI-H23 lung
UO-31 renal = test system: UO-31 renal
786-0 renal = test system: 786-0 renal
SK-MEL-5 melanoma = test system: SK-MEL-5 melanoma
HL-60(TB) leukemia = test system: HL-60(TB) leukemia
A549 NSCLC = test system: A549 NSCLC
TK-10 renal = test system: TK-10 renal
NCI-H226 lung = test system: NCI-H226 lung
T-47D breast = test system: T-47D breast
UACC-257 melanoma = test system: UACC-257 melanoma
K-562 leukemia = test system: K-562 leukemia
MOLT-4 leukemia = test system: MOLT-4 leukemia
HCT-15 colon = test system: HCT-15 colon

Compound	TGI (SF-268 CNS)	TGI (SF-295 CNS)	TGI (ACHN renal)	TGI (SF-539 CNS)	TGI (SN12C renal)	TGI (UACC-62 melanoma)	TGI (NCI-H23 lung)	TGI (UO-31 renal)	TGI (786-0 renal)	TGI (SK-MEL-5 melanoma)	TGI (HL-60(TB) leukemia)	TGI (A549 NSCLC)	TGI (TK-10 renal)	TGI (NCI-H226 lung)	TGI (T-47D breast)	TGI (UACC-257 melanoma)	TGI (K-562 leukemia)	TGI (MOLT-4 leukemia)	TGI (HCT-15 colon)
C/C(=N\NC(=S)N1CC2CCC(CC2)C1)c1ccncn1	3.62 µM	4.94 µM	3.28 µM	2.02 µM	5.16 µM	1.04 µM	2.4 µM	0.911 µM	2.86 µM	0.833 µM	1.44 µM	1.94 µM	2.56 µM	2.33 µM	3.48 µM	2.91 µM	–	–	–
CCOC(=O)NC(Nc1ccc(S(=O)(=O)Nc2ncccn2)cc1)(C(=O)OCC)C(F)(F)F (configuration not stated)	> 100 µM	> 100 µM	> 100 µM	> 100 µM	> 100 µM	> 100 µM	> 100 µM	> 100 µM	> 100 µM	> 100 µM	> 100 µM	> 100 µM	–	> 100 µM	> 100 µM	> 100 µM	> 100 µM	> 100 µM	> 100 µM
NS(=O)(=O)c1nnc(NC(=O)c2ccccc2)s1	> 100 µM	> 100 µM	> 100 µM	> 100 µM	> 100 µM	> 100 µM	> 100 µM	> 100 µM	> 100 µM	> 100 µM	–	> 100 µM	> 100 µM	> 100 µM	> 100 µM	> 100 µM	> 100 µM	> 100 µM	> 100 µM
COC1(OC)C2(Cl)CCC1(Cl)C(OC(C)=O)C2 (configuration not stated)	> 100 µM	> 100 µM	> 100 µM	> 100 µM	> 100 µM	> 100 µM	> 100 µM	> 100 µM	> 100 µM	> 100 µM	–	> 100 µM	> 100 µM	> 100 µM	> 100 µM	> 100 µM	> 100 µM	> 100 µM	> 100 µM
Oc1cc(O)c2c(c1)O[C@H](c1cc(O)c(O)c(O)c1)[C@H](O)C2	61.2 µM	83.7 µM	48.9 µM	48.7 µM	37 µM	–	65.3 µM	39.4 µM	33.5 µM	37.6 µM	42.2 µM	76.7 µM	–	> 100 µM	80.7 µM	> 100 µM	48.4 µM	32.9 µM	> 100 µM
O=C1SCC(O)=C1/C=N/Nc1nc2ccccc2o1	> 100 µM	72.4 µM	> 100 µM	40.8 µM	96 µM	46.1 µM	86.3 µM	–	> 100 µM	63.9 µM	24.7 µM	95.4 µM	92.8 µM	76.6 µM	54.7 µM	72.5 µM	–	> 100 µM	> 100 µM
c1ccc2c(c1)nc1n2CNCC1	> 100 µM	> 100 µM	> 100 µM	> 100 µM	> 100 µM	> 100 µM	> 100 µM	> 100 µM	> 100 µM	> 100 µM	> 100 µM	> 100 µM	> 100 µM	> 100 µM	> 100 µM	> 100 µM	–	> 100 µM	> 100 µM
Nc1nc(Cl)cc(NCC2(CO)CC(OCc3ccccc3)C2)n1 (configuration not stated)	74.8 µM	> 100 µM	> 100 µM	> 100 µM	> 100 µM	> 100 µM	> 100 µM	> 100 µM	> 100 µM	> 100 µM	> 100 µM	> 100 µM	> 100 µM	> 100 µM	41.9 µM	> 100 µM	> 100 µM	–	> 100 µM
CSc1ccc(C2C(Cl)C(=O)N2NC(=O)c2c(Cl)c(Cl)c(Cl)c(Cl)c2-c2nc3ccccc3[nH]2)cc1 (configuration not stated)	64.4 µM	> 100 µM	71.4 µM	53.4 µM	37 µM	> 100 µM	43.1 µM	> 100 µM	76.8 µM	35.7 µM	55.1 µM	> 100 µM	–	38.5 µM	12.3 µM	51.3 µM	> 100 µM	68.7 µM	60.4 µM
CSc1nc(Cl)c2c(n1)Sc1nc3cc4c(cc3n1C2O)OCO4 (configuration not stated)	> 100 µM	> 83.2 µM	> 100 µM	0.327 µM	32.4 µM	14.2 µM	> 100 µM	> 57.8 µM	> 39 µM	7.49 µM	–	> 47.9 µM	> 100 µM	6.09 µM	> 100 µM	> 100 µM	> 100 µM	> 100 µM	> 100 µM
CCCN=C(NC(=O)c1ccc(Cl)cc1)SC	> 100 µM	> 100 µM	> 100 µM	> 100 µM	> 100 µM	> 100 µM	> 100 µM	46.4 µM	> 100 µM	> 100 µM	> 100 µM	> 100 µM	–	> 100 µM	> 100 µM	> 100 µM	> 100 µM	> 100 µM	> 100 µM
Nc1nc(Cl)cc(NCC2(CO)COC2)n1	> 100 µM	> 100 µM	> 100 µM	> 100 µM	> 100 µM	> 100 µM	> 100 µM	> 100 µM	> 100 µM	> 100 µM	> 100 µM	> 100 µM	> 100 µM	> 100 µM	> 100 µM	> 100 µM	> 100 µM	–	> 100 µM
